Source: ChEMBL document CHEMBL2203081 (Bioorg Med Chem Lett, 2012)
Activity calls are given as the source filed them. The calls are words filed in the database; no cut-off is given here.

Legend:
[1] = target: Leucine-rich repeat serine/threonine-protein kinase 2 (Homo sapiens) (UniProt Q5S007); settings: 0.03 to 3 uM
Description: Inhibition of LRRK2 in human lymphoblastoid cells assessed as inhibition of Ser935 autophosphorylation at 0.03 to 3 uM after 90 mins by immunoblot method

[2] = target: Leucine-rich repeat serine/threonine-protein kinase 2 (Homo sapiens) (UniProt Q5S007); settings: 0.03 to 3 uM; remark: listed apart in the source
Description: Inhibition of LRRK2 in human lymphoblastoid cells assessed as inhibition of Ser910 autophosphorylation at 0.03 to 3 uM after 90 mins by immunoblot method

[3] = target: Leucine-rich repeat serine/threonine-protein kinase 2 (Homo sapiens) (UniProt Q5S007); settings: HEK293, 0.03 to 3 uM
Description: Inhibition of GFP-tagged LRRK2 expressed in HEK293 cells assessed as inhibition of Ser935 autophosphorylation at 0.03 to 3 uM after 90 mins by immunoblotting method

[4] = target: Leucine-rich repeat serine/threonine-protein kinase 2 (Homo sapiens) (UniProt Q5S007); settings: HEK293, 0.03 to 3 uM; remark: listed apart in the source
Description: Inhibition of GFP-tagged LRRK2 expressed in HEK293 cells assessed as inhibition of Ser910 autophosphorylation at 0.03 to 3 uM after 90 mins by immunoblotting method

Sequence of Leucine-rich repeat serine/threonine-protein kinase 2 (Homo sapiens) (Q5S007 whole entry): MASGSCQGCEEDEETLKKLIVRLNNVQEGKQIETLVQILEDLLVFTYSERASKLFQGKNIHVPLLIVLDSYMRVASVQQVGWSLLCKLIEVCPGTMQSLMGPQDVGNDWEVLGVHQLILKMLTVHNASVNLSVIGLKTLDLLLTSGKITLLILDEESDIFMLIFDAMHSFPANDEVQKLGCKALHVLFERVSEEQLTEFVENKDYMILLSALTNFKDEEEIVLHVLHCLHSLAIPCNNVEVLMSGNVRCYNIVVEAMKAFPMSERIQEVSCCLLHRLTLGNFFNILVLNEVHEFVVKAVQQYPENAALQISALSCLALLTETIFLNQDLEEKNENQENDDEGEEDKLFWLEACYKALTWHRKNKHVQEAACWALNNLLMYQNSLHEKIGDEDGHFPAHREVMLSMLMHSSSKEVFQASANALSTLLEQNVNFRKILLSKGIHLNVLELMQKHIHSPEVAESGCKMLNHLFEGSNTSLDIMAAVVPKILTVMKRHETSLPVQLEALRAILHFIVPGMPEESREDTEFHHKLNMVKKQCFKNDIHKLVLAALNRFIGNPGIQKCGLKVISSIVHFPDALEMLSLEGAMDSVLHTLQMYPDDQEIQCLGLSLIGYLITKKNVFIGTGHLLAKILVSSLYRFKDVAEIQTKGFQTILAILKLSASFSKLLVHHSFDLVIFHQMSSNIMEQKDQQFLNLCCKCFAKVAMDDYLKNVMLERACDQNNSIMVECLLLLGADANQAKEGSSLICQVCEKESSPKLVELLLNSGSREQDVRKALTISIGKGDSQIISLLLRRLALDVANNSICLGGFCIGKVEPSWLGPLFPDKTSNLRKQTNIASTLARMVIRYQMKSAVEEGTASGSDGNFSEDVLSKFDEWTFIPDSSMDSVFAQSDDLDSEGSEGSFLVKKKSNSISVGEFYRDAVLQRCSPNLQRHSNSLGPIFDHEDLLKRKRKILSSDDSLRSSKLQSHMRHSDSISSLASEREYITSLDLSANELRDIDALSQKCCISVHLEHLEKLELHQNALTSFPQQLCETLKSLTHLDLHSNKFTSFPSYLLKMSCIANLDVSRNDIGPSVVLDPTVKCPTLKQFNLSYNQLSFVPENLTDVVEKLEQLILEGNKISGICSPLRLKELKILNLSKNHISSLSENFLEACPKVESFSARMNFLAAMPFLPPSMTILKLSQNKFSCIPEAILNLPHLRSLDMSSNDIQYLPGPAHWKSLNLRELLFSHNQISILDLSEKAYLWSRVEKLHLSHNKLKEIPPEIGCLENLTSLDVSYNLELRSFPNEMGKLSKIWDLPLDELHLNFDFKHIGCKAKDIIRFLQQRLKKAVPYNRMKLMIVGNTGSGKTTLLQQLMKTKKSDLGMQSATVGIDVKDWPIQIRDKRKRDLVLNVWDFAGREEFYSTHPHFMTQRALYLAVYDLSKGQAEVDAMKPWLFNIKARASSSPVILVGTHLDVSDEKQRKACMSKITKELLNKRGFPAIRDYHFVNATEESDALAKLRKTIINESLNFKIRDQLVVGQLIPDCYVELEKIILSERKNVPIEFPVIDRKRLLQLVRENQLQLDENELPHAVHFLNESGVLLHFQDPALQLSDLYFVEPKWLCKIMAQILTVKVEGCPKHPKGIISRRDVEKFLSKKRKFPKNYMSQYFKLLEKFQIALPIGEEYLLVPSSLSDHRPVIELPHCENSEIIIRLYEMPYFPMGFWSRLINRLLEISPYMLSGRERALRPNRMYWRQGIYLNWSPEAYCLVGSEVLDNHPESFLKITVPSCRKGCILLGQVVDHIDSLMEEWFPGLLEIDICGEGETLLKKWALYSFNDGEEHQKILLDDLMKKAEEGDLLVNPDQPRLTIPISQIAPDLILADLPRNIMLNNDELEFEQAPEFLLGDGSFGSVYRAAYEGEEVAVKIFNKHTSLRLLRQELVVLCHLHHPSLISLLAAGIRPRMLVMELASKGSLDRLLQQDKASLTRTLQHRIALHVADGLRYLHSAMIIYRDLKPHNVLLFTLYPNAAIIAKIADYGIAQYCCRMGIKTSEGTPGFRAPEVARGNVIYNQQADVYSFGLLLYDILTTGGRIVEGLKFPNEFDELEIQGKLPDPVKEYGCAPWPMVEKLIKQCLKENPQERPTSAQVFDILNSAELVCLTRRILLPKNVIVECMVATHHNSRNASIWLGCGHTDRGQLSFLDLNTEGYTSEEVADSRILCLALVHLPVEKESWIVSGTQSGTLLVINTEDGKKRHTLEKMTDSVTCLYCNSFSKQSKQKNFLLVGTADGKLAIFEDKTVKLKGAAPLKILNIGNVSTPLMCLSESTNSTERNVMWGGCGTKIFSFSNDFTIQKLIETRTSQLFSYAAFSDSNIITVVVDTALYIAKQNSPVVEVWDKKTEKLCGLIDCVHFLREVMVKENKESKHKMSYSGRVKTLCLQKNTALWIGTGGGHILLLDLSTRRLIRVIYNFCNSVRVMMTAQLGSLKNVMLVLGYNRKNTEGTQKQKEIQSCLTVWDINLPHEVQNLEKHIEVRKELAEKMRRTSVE

inhibition [1]: Active
inhibition [2]: Active
inhibition [3]: Active
inhibition [4]: Active
Compound: COc1cc(C(=O)N2CCC(N3CCN(C)CC3)CC2)ccc1Nc1ncc2c(n1)N(C)c1ccccc1C(=O)N2C
